What is called pIC50 is the negative decadic logarithm of the IC50, by convention in mol/L. Higher therefore signals a low IC50.

The values that follow come from patent US10640457B2, “Histone acetyltransferase activators and uses thereof” (The Trustees of Columbia University in the City of New York, priority 2009, dated 2020).

pIC50: −log10 of the molar value. Values joined by “and” are separate entries in the source; they are usually repeats but may differ in a detail not shown here. Equal values may be shown once. “Also recorded” adds a separate entry of the source.

The test system of series [1] is Aβ-infused mice. The experiment in a line: Contextual and cued fear conditioning in Aβ42-infused mice (TSA). It is filed as in vivo. The source says:
HDAC inhibition rescues the defect in associative memory by Aβ elevation. The APP and PS1 transgenes could affect neuronal function through different mechanisms [B23, B24] (each herein incorporated by reference in its entirety), including direct effects by Aβ. Full-length APP and its cleavage products could differently impact H4 acetylation. To separate Aβ effects from other effects of APP and PS1 overexpression, we next determined whether Aβ per se is responsible for the deficit in H4 acetylation observed in our studies on transgenic mice. […] (each herein incorporated by reference in its entirety), we applied a preparation containing oligomeric Aβ42 (200 nM in a volume of […], slowly over 1 min) into dorsal hippocampi (FIG. 24A-B), 15 min prior to training for fear conditioning, with injection of TSA or vehicle (2 mg/kg body weight, 2 hrs prior to training, i.p.). Infusion occurred 5-7 days after implanting cannulas onto dorsal hippocampi. We found no difference in the freezing behavior among the 4 groups of mice during the training phase of the fear conditioning (F3,41=0.04188, p=0.9884, n=8-14/group; FIG. 24C). Twenty-four hours later, freezing behavior was decreased in Aβ-infused mice compared to vehicle-infused mice in the analysis of the contextual learning (F3,41=3.619, p=0.0209, n=8-14/group; FIG. 24C). Freezing in Aβ-infused mice was about 25% that of vehicle-infused mice [Aβ-infused mice: 8.580±2.119% vs. vehicle-infused mice: 31.46±5.373% n=12 and 11 males, respectively; t=3.147, p=0.0049; FIG. 24C].

In series [2] the target is T1, Sirtuin 2 (Homo sapiens, UniProt Q8IXJ6).
T1 sequence (Q8IXJ6 1-389): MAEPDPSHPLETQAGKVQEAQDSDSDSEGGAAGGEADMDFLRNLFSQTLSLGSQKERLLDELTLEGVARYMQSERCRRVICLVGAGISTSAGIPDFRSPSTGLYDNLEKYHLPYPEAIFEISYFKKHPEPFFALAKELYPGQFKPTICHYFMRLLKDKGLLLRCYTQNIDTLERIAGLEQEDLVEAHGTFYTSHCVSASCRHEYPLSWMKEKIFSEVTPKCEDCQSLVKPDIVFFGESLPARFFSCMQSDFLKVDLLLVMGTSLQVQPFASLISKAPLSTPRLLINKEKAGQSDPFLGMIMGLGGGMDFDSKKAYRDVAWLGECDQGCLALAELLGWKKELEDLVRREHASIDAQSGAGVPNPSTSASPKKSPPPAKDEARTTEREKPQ
Briefly: Sirtuin 2 fluorogenic activity assay. As to conditions: for % Activity: Repeat1/Repeat2, listed as OA2.

The target in series [3] is HDAC3/NCOR2 (Homo sapiens, UniProt O15379). The experiment in a line: HDAC3/NCOR2 fluorogenic activity assay.
The subject of series [4] is APP/PS1 mice. The experiment in a line: RAWM and fear conditioning in APP/PS1 mice (YF2). It is filed as in vivo. From the text: Without being bound by theory, given that these experiments were obtained with a synthetic preparation of Aβ42, it is difficult to know if this is the same as Aβ that causes synaptic dysfunction in AD brains. Thus, we validated these experiments in an Aβ-depositing mouse model, the APP/PS1 mouse^[P35] (herein incorporated by reference in its entirety). These mice have been well characterized with respect to AD pathology^[P34-38] (each herein incorporated by reference in its entirety). They start to show synaptic and memory impairment as early as 3 months of age^[P34] (herein incorporated by reference in its entirety). Transgenic mice with a double mutation APP […]/PS1(M146L) (line 6.2) start to develop large plaques in cortex and hippocampus at the age of 8-10 weeks. They have a reduction in LTP by 3 months of age together with impairment of contextual fear memory and spatial working memory.

For series [5], the system named is histone acetylation (ACH3) in hippocampus, cortex, liver. Briefly: Western blot of histone acetylation in mouse tissues after compound administration. It is filed as in vivo, mice. The source says:
The mice liver and hippocampus were extracted 1 hr after treatment. […] In addition to the mouse liver and hippocampus, the mouse cortex was also extracted.
The BBB was by-passed by giving it through cannulas implanted onto the dorsal hippocampus. Both the hippocampus and cortex were extracted at 2 hrs or 4 hrs after treatment.
Two and four hrs after its administration, the mice were sacrificed and hippocampi were extracted. […] Purity was verified through Nuclear Magnetic Resonance (NMR). […] Hippocampus extraction was made at 3 different time points (0.5, 1 and 2 hrs post treatment). We then ran a western blotting for ACH3.
The compound was i.p. administered at 20 mg/Kg, mice were sacrificed 30 min later, and hippocampi were removed and quickly frozen for WB analysis. […] (each herein incorporated by reference in its entirety). […]
On the technique in general: Immunoblotting shows a protein as a band on a membrane.

The nature of series [6]: Pharmacokinetics and brain penetration, plasma and brain by LC-MS/MS. Type of series: in vivo, BALB/c mice. The method, then: After i.p. and i.v. administration at 20 mg/kg to BALB/c mice, plasma and brain concentrations were determined by LC-MS/MS.
[7] abbreviates: IP administration 20 mg/kg, brain.
[8] abbreviates: IV administration 20 mg/kg, brain.

HDAC3/NCOR2, sequence (O15379 whole entry): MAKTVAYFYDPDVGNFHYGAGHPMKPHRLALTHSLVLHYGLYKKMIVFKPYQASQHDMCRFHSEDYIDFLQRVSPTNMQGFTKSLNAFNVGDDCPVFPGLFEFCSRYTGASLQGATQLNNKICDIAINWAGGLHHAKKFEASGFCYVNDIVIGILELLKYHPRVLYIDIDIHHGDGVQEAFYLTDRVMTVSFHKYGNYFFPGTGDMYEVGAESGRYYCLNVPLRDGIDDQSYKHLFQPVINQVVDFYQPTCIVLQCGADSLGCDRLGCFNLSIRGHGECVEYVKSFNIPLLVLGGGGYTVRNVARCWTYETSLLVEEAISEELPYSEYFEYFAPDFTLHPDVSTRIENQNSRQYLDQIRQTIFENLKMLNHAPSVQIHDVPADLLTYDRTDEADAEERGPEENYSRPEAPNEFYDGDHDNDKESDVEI
HDAC3/NCOR2, sequence (Q9Y618 395-489 partner limits assumed): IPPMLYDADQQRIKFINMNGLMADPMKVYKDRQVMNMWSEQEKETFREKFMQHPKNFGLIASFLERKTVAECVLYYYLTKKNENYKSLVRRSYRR

Take `CC(/C=C/C(=O)NO)=C\[C@@H](C)C(=O)c1ccc(N(C)C)cc1` [TSA, trichostatin A]: the “freezing time relative to Aβ-infused mice” value in series [1] (Aβ-infused mice injected with TSA) is “about 300%”. Further, the “deficit in freezing responses in Aβ-infused mice” value in series [1] (TSA i.p. 2 hrs before training) was “ameliorates”. In addition, the “freezing, contextual fear conditioning 24 hrs after training” value came to 26.17±4.747% in series [1] (TSA+Aβ treated mice, TSA 2 mg/kg i.p. 2 hrs prior to training, Aβ42 200 nM) and 27.01±7.246% in series [1] (TSA-treated, vehicle-infused mice). Also, in series [1] (pre-CS and CS), the “cued fear conditioning, freezing among the 4 groups” value was “did not find a difference”.

`CCOc1cccc(OCCN(C)C)c1C(=O)Nc1ccc(Cl)c(C(F)(F)F)c1` [YF2]: the pIC50 in series [2] and in series [3] was under 3.70 each time. In addition, the “% Activity” value in series [2] (OA2 Log[nM] 0.5) is 97.71% and 101.89%; in series [2] (OA2 Log[nM] 1.0), 96.21% and 97.38%; in series [2] (OA2 Log[nM] 1.5), 98.59% and 101.33%; in series [2] (OA2 Log[nM] 2.0), 94.20% and 99.91%; in series [2] (OA2 Log[nM] 2.5), 94.74% and 96.43%; in series [2] (OA2 Log[nM] 3.0) it was 94.53% and 98.73%. The “% Activity” value is 96.80% and 98.23% in series [2] (OA2 Log[nM] 3.5); 97.71% and 98.83% in series [2] (OA2 Log[nM] 4.0); 92.45% and 95.14% in series [2] (OA2 Log[nM] 4.5); 98.64% and 99.53% in series [2] (OA2 Log[nM] 5.3). The “reference memory defect (RAWM)” value in series [4] (APP/PS1 mice, 20 mg/Kg i.p. 30 min before 1st and 2nd group of tests, 20 mg/kg) is “ameliorates; also recorded: rescued”. Moreover, the “contextual fear memory deficit” value in series [4] (APP/PS1 mice, 20 mg/Kg i.p. 30 min before training for FC, 20 mg/kg) is given as “ameliorates”. For the same molecule, the “memory in WT mice” value in series [4] (WT littermates, 20 mg/Kg i.p.) is “without affecting”. Besides, the “acetylation of H3K4, H3K9, H3K14, H4K5, H4K8, H4K12, H4K16 and H2B in hippocampus” value in series [5] (20 mg/Kg i.p., sacrificed 30 min later) was “increased”. In addition, in series [5] (50 mg/kg i.p., 2 and 4 hrs after administration), the ACH3 in hippocampus entry is “increase”. Moreover, the “ACH3 levels in hippocampus” value in series [5] (5, 10, 20 mg/Kg i.p. in saline, 0.5, 1 and 2 hrs, except 1 hr-10 mg/kg) is reported as “dramatically increased”. For the same molecule, the “histone acetylation levels following Aβ elevation” value is listed as “restores” in series [5] (after foot shock, FIG. 80) and “restores” in series [5] (basal conditions, FIG. 79). The “crossing of the blood brain barrier (BBB)” value in series [5] (concluded from brain histone acetylation after i.p. administration) was “able to cross the BBB; also recorded: crosses the BBB and the cell membrane”. Further, the “Aβ-induced decrease in H3 acetylation levels in hippocampus” value in series [5] (i.p. 5 mg/kg, Aβ 200 nM infused onto dorsal hippocampi, 5 mg/kg) is on record as “able to rescue; also recorded: rescued”. The “histone 3 acetylation levels of the hippocampus” value in series [5] (i.p., FIG. 1) was “increases”. The values for the AUC0-t in series [6] (setting [7]) and in series [6] (setting [8]) were 6493 ng·h/g and 22222 ng·h/g, respectively. Besides, the “AUC0-∞” value in series [6] (setting [7]) came to 6564 ng·h/g; in series [6] (setting [8]) it was 22581 ng·h/g. In addition, the F is 29.2% in series [6] (setting [7]) and 41.0% in series [6] (IP administration 20 mg/kg, plasma).
